From patent US20100074920A1 (priority 2006, published 2010)
Read-outs that look alike come from different tables or passages of the source.

Experiments:
[1] = system: serum antibodies of test subjects Serum 1B-8B; conditions: sera S1B-S8B; streptavidin immobilized peptide
[2] = system: serum antibodies of test subjects 1-6; conditions: N-terminal conjugate on a streptavidin plate; sera 1-6
[3] = system: serum antibodies of test subjects 1-6; experiment: ELISA on maleimide-activated plates (Cys-immobilized peptides); assay type: binding, human; conditions: Cys-conjugate on maleimide plate; sera 1-6
Protocol: Peptides containing cysteine were bound through the cysteine sulfhydryl group to maleimide activated plates (Reacti-Bind™ Maleimide activated plates, Pierce). The peptides sequences were as follows:
One hundred microliters of the peptide solution (0.5 nmol of peptide) was added to each well and allowed to react overnight at +4° C.
The unreacted maleimide groups were blocked with 2-mercaptoethanol: 150 μl of 1 mM 2-mercaptoethanol in 10 mM sodium phosphate/0.15 M NaCl/2 mM EDTA, pH 7.2 was added to each well and allowed to react for 1 hour at RT.
The serum obtained from person nr. […] Control wells contained no peptide but both 2-mercaptoethanol and BSA blockings were employed. All incubations were performed in duplicates.

[4] = system: commercial polyclonal antibody from rabbit; experiment: ELISA control, peptide coated on maleimide plate; conditions: peptide coated on a maleimide plate; negligible binding without the peptide
Source text: A commercial peptide […] (HM11-peptide), which has been used as a recognition tag on recombinant proteins was used as a control and for testing of analysis of binding between a free core peptide and human antibodies. Due to restricted availability of at least N-terminal sequence the peptide would not be very effective in immunization against the viral as therapy. This peptide is known to be antigenic in animals under immunization conditions and antibodies including polyclonals from rabbit, mice etc.

Substance | binding of serum antibodies (immune response), absorbance at 450 nm [1] | immune response of the 6 sera, order of reactivity [2] | further results
Biotin-aminocaproyl-CRPKVRDQC [Peptide 3B] | unusually high response, especially with a person S5B |  | 
Biotin-aminocaproyl-CRPWVRGVC [Peptide 4B] | bind generally more strongly antibodies than the corresponding linear peptide 3 |  | 
Biotin-aminohexanoyl-PWVRGV [Peptide 3] |  | distinct pattern of immune recognition | 
Biotin-aminohexanoyl-SYACKR [Peptide 2] |  | sera 2 and 5 showed strongest immune response before sera 3,4 and 6, while serum 1 showed weakest reaction | immune response of the 6 sera, order of reactivity [3]: reacted with sera similarly but reactions with serum 5 was weaker and the serum 6 showed the strongest response
CYPYDVPDYA [HA11, commercial peptide used as a recognition tag on recombinant proteins; control and core peptide] |  |  | binding of commercial polyclonal antibody from rabbit to the peptide [4]: effective binding
